Experimental data from the supplement of paper PMC12463676, “Small-molecule dissolution of stress granules by redox modulation benefits ALS models” (Nature Chemical Biology, 2025).

What was measured:
[1] = compound: NC(=O)CCCCC1CCSS1 [lipoamide]; experiment: thermal stability z-score vs DMSO; higher = more thermally stabilized by treatment; details: HeLa, lipoamide concentration 100 µM
Method: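 Cellular thermal proteome profiling in HeLa cells. Cells were treated with 100 µM lipoamide for 1 h, with or without 1 mM arsenate for a further 1 h, then heated to ten temperatures (37-66.3 °C), and soluble protein was quantified by TMT mass spectrometry relative to 0.1% DMSO controls. The thermal stability score (sum of log2 fold changes minus the abundance score) was transformed to a z-score; mean of n = 3 experiments.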

[2] = compound: O=[As]([O-])(O)O.[K+] [potassium arsenate]; experiment: as above; details: HeLa; arsenate concentration 1 mM
Method: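 Cellular thermal proteome profiling in HeLa cells treated with 1 mM arsenate for 1 h (DMSO pretreatment), heated to ten temperatures (37-66.3 °C). Soluble protein was quantified by TMT mass spectrometry relative to DMSO controls; the thermal stability score was transformed to a z-score; mean of n = 3 experiments.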

[3] = arsenate co-treatment: 1 mM arsenate 1 h
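Note: each temperature applied for 3 min, abundance score taken as mean log2 fold change at the two lowest temperatures, z-score obtained by mean subtraction and division by SD.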

Chain of UniProt Q5MNZ6 (Q5MNZ6 whole entry): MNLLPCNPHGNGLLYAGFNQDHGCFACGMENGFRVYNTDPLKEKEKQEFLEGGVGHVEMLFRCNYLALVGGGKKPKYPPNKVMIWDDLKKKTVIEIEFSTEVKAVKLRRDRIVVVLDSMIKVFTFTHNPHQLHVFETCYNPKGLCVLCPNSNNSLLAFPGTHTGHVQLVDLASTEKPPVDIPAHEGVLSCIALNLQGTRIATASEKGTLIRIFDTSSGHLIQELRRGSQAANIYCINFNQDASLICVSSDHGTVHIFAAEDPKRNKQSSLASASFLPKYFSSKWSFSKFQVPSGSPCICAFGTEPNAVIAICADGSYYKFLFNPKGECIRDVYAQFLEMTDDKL
Chain of UniProt P57081 (P57081 whole entry): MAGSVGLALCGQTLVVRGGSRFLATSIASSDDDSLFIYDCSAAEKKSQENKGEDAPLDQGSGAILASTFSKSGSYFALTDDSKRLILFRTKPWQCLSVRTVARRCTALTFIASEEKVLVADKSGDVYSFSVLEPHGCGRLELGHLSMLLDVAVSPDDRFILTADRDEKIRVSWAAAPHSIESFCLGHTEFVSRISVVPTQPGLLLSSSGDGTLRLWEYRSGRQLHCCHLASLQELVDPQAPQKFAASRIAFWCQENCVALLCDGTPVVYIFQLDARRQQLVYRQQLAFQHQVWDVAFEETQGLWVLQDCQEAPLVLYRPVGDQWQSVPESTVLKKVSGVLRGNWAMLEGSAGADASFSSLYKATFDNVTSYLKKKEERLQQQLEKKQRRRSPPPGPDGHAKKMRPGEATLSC
Chain of UniProt Q9H1Z4 (Q9H1Z4 whole entry): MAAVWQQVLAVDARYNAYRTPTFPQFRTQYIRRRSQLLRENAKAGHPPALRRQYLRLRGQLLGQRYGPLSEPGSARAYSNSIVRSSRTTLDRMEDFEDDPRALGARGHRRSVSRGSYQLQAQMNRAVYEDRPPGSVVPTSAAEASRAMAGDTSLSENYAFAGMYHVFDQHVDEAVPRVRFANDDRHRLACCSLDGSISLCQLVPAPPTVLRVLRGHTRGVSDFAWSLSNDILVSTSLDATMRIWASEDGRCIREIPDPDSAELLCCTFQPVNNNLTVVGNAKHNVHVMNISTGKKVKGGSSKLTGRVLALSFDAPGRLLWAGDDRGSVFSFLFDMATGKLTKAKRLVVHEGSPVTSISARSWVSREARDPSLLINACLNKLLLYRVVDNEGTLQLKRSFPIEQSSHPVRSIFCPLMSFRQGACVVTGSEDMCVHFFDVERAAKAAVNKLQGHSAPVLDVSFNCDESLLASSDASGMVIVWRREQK
Chain of UniProt O75717 (O75717 whole entry): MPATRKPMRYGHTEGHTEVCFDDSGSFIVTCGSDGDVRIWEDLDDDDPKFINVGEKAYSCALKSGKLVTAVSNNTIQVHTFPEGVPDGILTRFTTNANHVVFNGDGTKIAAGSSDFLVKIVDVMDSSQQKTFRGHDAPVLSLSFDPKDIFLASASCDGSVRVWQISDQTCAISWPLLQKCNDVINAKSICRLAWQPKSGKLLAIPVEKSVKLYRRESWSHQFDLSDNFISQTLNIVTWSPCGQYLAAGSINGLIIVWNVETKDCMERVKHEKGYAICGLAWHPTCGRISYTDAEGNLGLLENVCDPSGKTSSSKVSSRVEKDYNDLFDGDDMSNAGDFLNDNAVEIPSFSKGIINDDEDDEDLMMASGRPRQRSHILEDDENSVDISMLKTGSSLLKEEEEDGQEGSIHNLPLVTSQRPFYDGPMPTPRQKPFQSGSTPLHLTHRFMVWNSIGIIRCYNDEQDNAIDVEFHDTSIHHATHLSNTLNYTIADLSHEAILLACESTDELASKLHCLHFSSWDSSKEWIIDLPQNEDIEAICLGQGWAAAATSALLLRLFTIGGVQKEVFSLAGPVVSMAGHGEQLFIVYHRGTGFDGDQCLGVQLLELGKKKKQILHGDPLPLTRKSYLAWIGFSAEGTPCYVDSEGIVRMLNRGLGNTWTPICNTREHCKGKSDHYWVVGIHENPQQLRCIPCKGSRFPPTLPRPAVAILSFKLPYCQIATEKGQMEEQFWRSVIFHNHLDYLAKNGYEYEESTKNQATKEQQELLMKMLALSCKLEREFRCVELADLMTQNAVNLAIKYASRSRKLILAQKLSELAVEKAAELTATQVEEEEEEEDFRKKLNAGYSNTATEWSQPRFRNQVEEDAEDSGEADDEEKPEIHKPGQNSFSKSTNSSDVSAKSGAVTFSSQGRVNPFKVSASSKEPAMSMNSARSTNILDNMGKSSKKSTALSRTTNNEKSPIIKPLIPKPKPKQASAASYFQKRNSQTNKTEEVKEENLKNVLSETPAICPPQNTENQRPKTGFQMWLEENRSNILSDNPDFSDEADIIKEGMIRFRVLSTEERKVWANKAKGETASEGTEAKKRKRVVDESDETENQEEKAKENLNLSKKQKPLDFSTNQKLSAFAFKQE
Chain of UniProt Q15061 (Q15061 whole entry): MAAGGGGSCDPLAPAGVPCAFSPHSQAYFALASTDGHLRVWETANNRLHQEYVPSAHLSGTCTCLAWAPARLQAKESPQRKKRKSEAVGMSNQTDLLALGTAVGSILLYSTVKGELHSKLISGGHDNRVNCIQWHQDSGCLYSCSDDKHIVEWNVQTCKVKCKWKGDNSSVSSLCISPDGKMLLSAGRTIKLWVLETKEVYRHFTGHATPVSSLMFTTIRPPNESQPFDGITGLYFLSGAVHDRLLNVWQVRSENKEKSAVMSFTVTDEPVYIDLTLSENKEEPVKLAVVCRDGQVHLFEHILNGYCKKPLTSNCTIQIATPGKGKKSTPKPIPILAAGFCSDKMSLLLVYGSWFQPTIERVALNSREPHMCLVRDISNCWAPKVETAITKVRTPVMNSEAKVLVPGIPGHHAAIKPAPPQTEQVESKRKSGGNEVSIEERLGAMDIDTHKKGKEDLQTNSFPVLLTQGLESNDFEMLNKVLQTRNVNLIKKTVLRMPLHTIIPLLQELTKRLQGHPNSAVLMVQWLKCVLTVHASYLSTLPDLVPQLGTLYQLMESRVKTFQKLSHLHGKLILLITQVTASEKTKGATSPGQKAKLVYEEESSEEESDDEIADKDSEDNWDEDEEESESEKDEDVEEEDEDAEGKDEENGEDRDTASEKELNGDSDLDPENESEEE
Chain of UniProt Q9Y4E6 (Q9Y4E6 whole entry): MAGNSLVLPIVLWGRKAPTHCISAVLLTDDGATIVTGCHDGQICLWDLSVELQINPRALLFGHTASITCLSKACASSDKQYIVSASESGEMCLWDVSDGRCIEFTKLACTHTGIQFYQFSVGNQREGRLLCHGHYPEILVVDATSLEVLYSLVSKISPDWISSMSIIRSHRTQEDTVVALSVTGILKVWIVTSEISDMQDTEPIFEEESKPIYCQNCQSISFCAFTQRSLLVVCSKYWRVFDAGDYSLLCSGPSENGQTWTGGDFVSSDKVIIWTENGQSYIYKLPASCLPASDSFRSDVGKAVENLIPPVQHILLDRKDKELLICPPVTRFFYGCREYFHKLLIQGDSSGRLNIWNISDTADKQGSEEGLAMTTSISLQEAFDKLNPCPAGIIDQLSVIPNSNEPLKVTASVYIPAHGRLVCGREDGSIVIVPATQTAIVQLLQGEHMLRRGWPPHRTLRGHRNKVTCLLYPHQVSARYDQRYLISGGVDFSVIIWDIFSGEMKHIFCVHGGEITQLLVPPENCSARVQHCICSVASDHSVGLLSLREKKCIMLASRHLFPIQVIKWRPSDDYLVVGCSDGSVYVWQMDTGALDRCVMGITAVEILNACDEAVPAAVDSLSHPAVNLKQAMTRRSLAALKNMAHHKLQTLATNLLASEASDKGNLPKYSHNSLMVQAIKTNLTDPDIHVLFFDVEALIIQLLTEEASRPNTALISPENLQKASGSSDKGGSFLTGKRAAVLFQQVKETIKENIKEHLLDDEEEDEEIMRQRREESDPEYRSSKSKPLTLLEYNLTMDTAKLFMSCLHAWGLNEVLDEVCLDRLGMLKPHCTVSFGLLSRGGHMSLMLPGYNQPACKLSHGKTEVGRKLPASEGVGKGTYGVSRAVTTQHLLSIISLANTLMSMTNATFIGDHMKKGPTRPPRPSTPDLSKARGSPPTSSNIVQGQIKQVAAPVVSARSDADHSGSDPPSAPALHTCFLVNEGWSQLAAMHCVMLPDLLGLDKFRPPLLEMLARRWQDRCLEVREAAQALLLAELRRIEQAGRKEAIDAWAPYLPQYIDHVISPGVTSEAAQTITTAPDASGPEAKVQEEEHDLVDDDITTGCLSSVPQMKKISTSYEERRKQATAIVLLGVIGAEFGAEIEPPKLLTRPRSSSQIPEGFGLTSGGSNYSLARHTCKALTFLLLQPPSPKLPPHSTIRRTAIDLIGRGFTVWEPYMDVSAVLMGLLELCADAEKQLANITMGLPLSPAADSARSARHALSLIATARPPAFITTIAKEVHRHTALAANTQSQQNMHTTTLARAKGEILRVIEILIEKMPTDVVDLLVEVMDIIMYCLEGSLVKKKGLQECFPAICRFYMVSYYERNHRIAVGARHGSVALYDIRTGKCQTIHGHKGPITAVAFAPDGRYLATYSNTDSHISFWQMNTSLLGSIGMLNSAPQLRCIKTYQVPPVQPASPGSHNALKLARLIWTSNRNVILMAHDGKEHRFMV
Chain of UniProt Q8IWB7 (Q8IWB7 whole entry): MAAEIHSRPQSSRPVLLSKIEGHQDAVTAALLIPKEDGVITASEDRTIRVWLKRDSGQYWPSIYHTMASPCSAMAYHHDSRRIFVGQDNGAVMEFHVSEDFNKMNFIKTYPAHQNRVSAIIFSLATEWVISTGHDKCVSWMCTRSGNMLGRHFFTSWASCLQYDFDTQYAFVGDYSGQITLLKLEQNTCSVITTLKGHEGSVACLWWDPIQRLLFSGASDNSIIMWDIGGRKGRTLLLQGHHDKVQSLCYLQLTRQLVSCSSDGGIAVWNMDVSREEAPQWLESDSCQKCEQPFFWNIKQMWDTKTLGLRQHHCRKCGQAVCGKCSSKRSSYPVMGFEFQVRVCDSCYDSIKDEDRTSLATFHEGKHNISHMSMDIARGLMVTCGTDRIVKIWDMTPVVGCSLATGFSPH

| Target | thermal stability z-score [1, 3] | thermal stability z-score ([1]; arsenate co-treatment: none) | thermal stability z-score [2] |
| --- | --- | --- | --- |
| WBP11 (UniProt Q9Y2W2) | 0.102 | 0.283 | 0.254 |
| WBSCR16 (UniProt Q96I51) | 1.56 | 0.878 | 0.683 |
| WBSCR22 (UniProt O43709) | -0.223 | -0.46 | -0.902 |
| WDFY1 (UniProt Q8IWB7) | -0.112 | -0.423 | -1.85 |
| WDFY2 (UniProt Q96P53) | -0.402 | -0.11 | -0.0121 |
| WDFY3 (UniProt Q8IZQ1) | -0.0589 | 0.0954 | -0.0794 |
| WDHD1 (UniProt O75717) | 1.28 | 1.01 | -0.982 |
| WDR1 (UniProt O75083) | 0.454 | 0.0649 | -0.59 |
| WDR3 (UniProt Q9UNX4) | -0.031 | 0.0101 | -0.0987 |
| WDR4 (UniProt P57081) | -0.105 | -0.0364 | 0.00243 |
| WDR5 (UniProt P61964) | 1.18 | 0.552 | 0.234 |
| WDR6 (UniProt Q9NNW5) | -0.00677 | 0.325 | 0.0479 |
| WDR7 (UniProt Q9Y4E6) | -0.338 | 0.149 | -0.351 |
| WDR11 (UniProt Q9BZH6) | -0.207 | -0.147 | -0.267 |
| WDR12 (UniProt Q9GZL7) | 0.771 | 0.222 | 0.0663 |
| WDR13 (UniProt Q9H1Z4) | -0.241 | -0.115 | -0.408 |
| WDR18 (UniProt Q9BV38) | 1.38 | 0.361 | 0.122 |
| WDR19 (UniProt Q8NEZ3) | -0.121 | 0.369 | 0.81 |
| WDR26 (UniProt Q9H7D7) | -0.326 | -0.319 | -0.602 |
| WDR33 (UniProt Q9C0J8) | 0.0589 | -0.0858 | -0.105 |
| WDR34 (UniProt Q96EX3) | -0.251 | -0.215 | -0.776 |
| WDR36 (UniProt Q8NI36) | 0.0966 | 0.698 | -0.285 |
| WDR41 (UniProt Q9HAD4) | -0.212 | -0.267 | -0.285 |
| WDR43 (UniProt Q15061) | -1.62 | -1.02 | -0.817 |
| WDR44 (UniProt Q5JSH3) | 0.411 | 0.42 | 0.635 |
| WDR45 (UniProt Q9Y484) | -0.0374 | 0.11 | 0.292 |
| WDR45B (UniProt Q5MNZ6) | 0.848 | 0.63 | 0.162 |
